Experimental data published in the supplement of paper PMC11451515.

How the values were obtained:
Test in all cases: AUC of viability dose-response curve (% viability x log10 dose units); higher = less sensitive
Details in all cases: 48 h
[1] = test system: NOMO1
How it was run: (§1)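 Leukemia cells adapted to each medium were seeded at 500 or 1000 cells/well in 1536-well plates and dosed with library compounds in DMSO at 11 threefold doses from 47 μM to 0.79 nM for 48 h at 37°C. CellTiter-Glo One luminescence was normalised per plate to DMSO and cell-free wells, then fitted with a four-parameter log-logistic model over log10 doses. Area under the curve was taken from this fit by the trapezoidal rule, with curves above full viability scaled and curves failing quality control removed.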

[2] = test system: P12-Ichikawa
How it was run: as §1

[3] = test system: SEM cells
How it was run: as §1

[4] = RPMI 5 mM glucose + 10% dialyzed FBS

Row | SMILES | AUC of viability dose-response curve ([1]; HPLM + 10% dialyzed FBS) | AUC of viability dose-response curve ([1]; RPMI 5 mM glucose + 10% FBS) | AUC of viability dose-response curve [1, 4] | AUC of viability dose-response curve ([2]; HPLM + 10% dialyzed FBS) | AUC of viability dose-response curve ([2]; RPMI 5 mM glucose + 10% FBS) | AUC of viability dose-response curve [2, 4] | AUC of viability dose-response curve ([3]; HPLM + 10% dialyzed FBS) | AUC of viability dose-response curve ([3]; RPMI 5 mM glucose + 10% FBS) | AUC of viability dose-response curve [3, 4]
1 | CC1=C(C)C(=O)C(C(CCCCCC(=O)O)c2ccccc2)=C(C)C1=O (stereo not drawn) | 334 | 293 | 318 | 387 | 414 | 362 | 301 | 301 | 303
2 | CNc1nc(Nc2ccc(C(=O)N3CCOCC3)cc2OC)ncc1Cl | 434 | 463 | 450 | 448 | 454 | 466 | 434 | 456 | 466
3 | C[C@H]1C[C@@H]2[C@H](CC[C@@]3(C)[C@H]2CC[C@]3(OC(C)=O)C(C)=O)[C@@]\4(C)CCC(=O)\C=C14 | 471 | 472 | 458 | 464 | 446 | 442 | 417 | 433 | 425
4 | O=C(c1ccc(F)cc1)N1CCC[C@H](c2nc(-c3ccc(F)cc3)no2)C1 | 467 | 453 | 472 | 460 | 459 | 459 | 453 | 455 | 475
5 | Cc1cnn(C)c1C(=O)Nc1cc(Nc2ccc3c(/C=C/c4ccccn4)n[nH]c3c2)ccc1F | 422 | 460 | 454 | 424 | 449 | 441 | 343 | 311 | 330
6 | C[C@]12CC[C@H]3[C@@H](CC[C@H]4NC(=O)\C=C/[C@]34C)[C@@H]1CC[C@@H]2C(=O)NC5=CC(=CC=C5C(F)(F)F)C(F)(F)F | 435 | 440 | 461 | 456 | 455 | 452 | 432 | 456 | 442
7 | CC1CNc2c(cccc2[S+](=O)([O-])N[C@@H](CCCNC(=N)N)C(=O)N2CC[C@@H](C)C[C@@H]2C(=O)O)C1 (stereo partly drawn) | 435 | 465 | 465 | 468 | 473 | 472 | 453 | 450 | 462
8 | CCC[S+]([O-])c1ccc2[nH]c(NC(=O)OC)nc2c1 (stereo not drawn) | 429 | 420 | 384 | 409 | 393 | 405 | 409 | 399 | 411
9 | CCOC(=O)c1ccc(OC(=O)CCCCCNC(=N)N)cc1 | 410 | 444 | 437 | 354 | 413 | 407 | 436 | 385 | 418
10 | O=C1NC(=O)/C(=C/c2ccc3nccc(-c4ccncc4)c3c2)S1 | 293 | 351 | 296 | 341 | 308 | 317 | 289 | 290 | 290
11 | C[C@]12CC[C@@H]3c4ccc(O)cc4CC[C@H]3[C@@H]1[C@@H](O)[C@@H](O)[C@@H]2O | 461 | 471 | 468 | 468 | 457 | 450 | 465 | 448 | 461
12 | CCCCC(=O)O[C@]1(C(=O)CO)[C@H](C)C[C@H]2[C@@H]3CCC4=CC(=O)C=C[C@]4(C)[C@@]3(F)[C@@H](O)C[C@@]21C | 467 | 474 | 472 | 372 | 315 | 292 | 378 | 362 | 350
13 | CC(C)(O)CC[C@@H](O)[C@](C)(O)[C@H]1CC[C@@]2(O)C/3=C/C(=O)[C@@H]4C[C@@H](O)[C@@H](O)C[C@]4(C)[C@H]3CC[C@]12C | 410 | 421 | 429 | 453 | 444 | 429 | 434 | 449 | 412
14 | ClC1=CC=C(C=C1)C(C#N)C2=C(Cl)C=C(C=C2Cl)N3\N=C/C(=O)NC3=O (stereo not drawn) | 453 | 458 | 455 | 460 | 454 | 459 | 428 | 415 | 451
15 | C[C@@H]1COCCN1c1cc(C2([S@+](C)(=N)[O-])CC2)nc(-c2ccnc3[nH]ccc23)n1 | 358 | 390 | 382 | 380 | 381 | 368 | 333 | 335 | 336
16 | CN(C)C1CCN(C(=O)c2ccc(NC(=O)Nc3nc(N4CCOCC4)nc(N4CCOCC4)n3)cc2)CC1 | 271 | 296 | 272 | 340 | 270 | 275 | 252 | 248 | 247

Row | SMILES | AUC of viability dose-response curve ([1]; HPLM + 10% dialyzed FBS) | AUC of viability dose-response curve ([1]; RPMI 5 mM glucose + 10% FBS) | AUC of viability dose-response curve [1, 4] | AUC of viability dose-response curve ([2]; HPLM + 10% dialyzed FBS) | AUC of viability dose-response curve ([2]; RPMI 5 mM glucose + 10% FBS) | AUC of viability dose-response curve [2, 4] | AUC of viability dose-response curve ([3]; HPLM + 10% dialyzed FBS) | AUC of viability dose-response curve ([3]; RPMI 5 mM glucose + 10% FBS) | AUC of viability dose-response curve [3, 4]
17 | COC(=O)Nc1cc(Nc2cc(NC3CC3)c3ncc(C#N)n3n2)c(Cl)c(N2CCN(C)CC2)c1 | 384 | 385 | 368 | 423 | 400 | 392 | 363 | 346 | 328
18 | C[C@](Cc1c[nH]c2ccccc12)(NC(=O)OC1C2CC3CC(C2)CC1C3)C(=O)NC[C@H](NC(=O)CCC(=O)O)c1ccccc1 (stereo partly drawn) | 455 | 413 | 435 | 469 | 461 | 456 | 447 | 433 | 430
19 | C[C@]12CCC(=O)C=C1CC[C@@H]1[C@@H]2[C@@H](O)C[C@@]2(C)[C@H]1CC[C@]2(O)C(=O)CO | 474 | 456 | 458 | 447 | 425 | 412 | 466 | 427 | 443
20 | Nc1ncnc2c1ncn2[C@@H]1O[C@@H](CO)[C@H](O)[C@@H]1O | 454 | 467 | 441 | 464 | 477 | 472 | 467 | 466 | 449
21 | Cc1nn(Cc2ccccc2Cl)c(C)c1CN(C)CC(O)COc1ccc(Cl)cc1 (stereo not drawn) | 445 | 428 | 436 | 463 | 440 | 435 | 436 | 432 | 430
22 | COC(=O)C[C@](O)(CCCC(C)(C)O)C(=O)O[C@@H]1C(OC)=CC23CCCN2CCc2cc4c(cc2[C@H]13)OCO4 (stereo partly drawn) | 458 | 466 | 466 | 458 | 458 | 458 | 462 | 452 | 471
23 | OC(c1cc(C(F)(F)F)nc2c(C(F)(F)F)cccc12)C1CCCCN1 (stereo not drawn) | 447 | 453 | 452 | 468 | 458 | 473 | 455 | 453 | 455
24 | CC(C)c1ccc2c(c1)c(SC(C)(C)C)c(CC(C)(C)C(=O)[O-])n2Cc1ccc(Cl)cc1 | 452 | 436 | 403 | 457 | 445 | 423 | 473 | 456 | 455
25 | CCN(CC)CCCCNc1ncc2cc(-c3cc(OC)cc(OC)c3)c(NC(=O)NC(C)(C)C)nc2n1 | 388 | 459 | 444 | 449 | 406 | 404 | 400 | 393 | 391
26 | CCc1ccc(CCOc2ccc(CC3SC(=O)NC3=O)cc2)nc1 (stereo not drawn) | 448 | 442 | 460 | 450 | 473 | 469 | 444 | 402 | 474
27 | CN(C)[S+](=O)([O-])c1ccc2c(c1)C(=Cc1cc3c([nH]1)CCCC3)C(=O)N2 | 467 | 453 | 455 | 467 | 464 | 468 | 462 | 462 | 459
28 | O=C1c2ccccc2-[n+]2ccc3c([nH]c4ccccc43)c21 | 385 | 398 | 390 | 403 | 405 | 407 | 291 | 332 | 311
29 | CN1CCN(C2=Nc3cc(Cl)ccc3Nc3ccccc32)CC1 | 463 | 471 | 470 | 477 | 472 | 471 | 459 | 428 | 452
30 | O=c1[nH]c(=O)n([C@H]2C[C@H](O)[C@@H](CO)O2)cc1/C=C/Br | 425 | 456 | 454 | 357 | 472 | 477 | 436 | 460 | 469
31 | CNC(=O)c1ccc(N2C(=S)N(c3cnc(C#N)c(C(F)(F)F)c3)C(=O)C23CCC3)cc1F | 419 | 426 | 439 | 470 | 463 | 467 | 447 | 452 | 457
32 | CC(C)(C)OC(=O)N[C@H]1CCCCC/C=C\[C@@H]2C[C@@]2(C(=O)N[S+](=O)([O-])C2CC2)NC(=O)[C@@H]2C[C@@H](OC(=O)N3Cc4cccc(F)c4C3)CN2C1=O | 457 | 468 | 472 | 468 | 467 | 459 | 401 | 441 | 466
